According to patent publication US9394544B2, “Ameliorating oxidative stress in neurodegenerative disease via Nox1 targeting” (University of Central Florida Research Foundation, Inc., priority 2013, dated 2016):

System: α-synuclein
Assay: α-Synuclein aggregation (immunocytochemistry, PK resistance, A11) in N27 cells exposed to PQ
Type: cell-based, rat
Conditions: for increase in aggregated α-synuclein-positive cells vs control: 24 h
Procedure: The same Nox1 shRNA used for AAV2 construct was cloned into a pLVX-shRNA2 vector containing zsGreen1 (Clontech). To make lentiviral particles, ViraPower Lentiviral Expression System (Invitrogen) was used. […]. For 6-well plates, 8 μg of each plasmid was mixed in a 1:1:1:1 ratio in 100 μl of Xfect polymer buffer and then added to the cells. After 48 h, the viral-containing medium was harvested and centrifuged briefly at 500×g for 10 min to remove cellular debris and supernatant recovered and kept at −80° C. until used.
After each respective treatment, cells were fixed in 4% paraformaldehyde (PFA) for 20 min and permeabilized with 0.1% Triton X-100 in PBS for 10 min. Blocking was performed by incubation with 20% goat or donkey serum in PBS containing 0.1% Tween 20 for 90 min at room temperature. The cells were then incubated for 120 min at room temperature with the following primary antibodies, according to the aim of the experiment: goat anti-Nox1 (1:50), rabbit anti-TH (1:10,000), mouse anti-Flag (1:150), mouse anti-α-synuclein (1:150), and rabbit anti-A11 (2.5 μg/ml). After washing, cells were incubated for 120 min with the appropriate secondary antibodies conjugated to Alexa Fluor 647 or Alexa Fluor 488 (1:1000). For nuclear visualization coverslips were incubated with 2 μM Hoechst for 10 min. For quantification of Flag^+ and α-synuclein^+ cells, >30 different fields per coverslip were analyzed on a Nikon inverted fluorescent microscope under a 20× and 40× magnification.
Immunocytochemistry for proteinase K (PK)-resistant α-synuclein was performed based on a methodology reported previously (Neumann et al., 2002), with some modifications. Briefly, fixed cells were permeabilized with 0.1% Tween 20 and then digested for 30 min at 37° C. with PK (10 μg/ml). PK was inactivated with 3 M guanidine thiocyanate in 10 mM Tris-HCl solution for 10 min. Between each step, cells were washed gently three times with PBS. Cells were then incubated for 60 min with blocking solution containing 10% donkey serum followed by an overnight incubation with mouse anti-α-synuclein antibody (1:150). The day after, cells were incubated with secondary antibodies conjugated to Alexa Fluor 647 donkey anti-mouse for 60 min and with 2 μM Hoechst solution for 10 min. For PK-resistant α-synuclein evaluation in rat SN, 40 μm sections from 4% PFA fixed tissues were washed twice in distillated water with 0.1% Tween 20, and then incubated for 30 min in TBST. The tissues were incubated for 90 min at 55° C. with 50 μg/ml PK in TBST and further washed three times in TBS. PK was denatured by incubating the tissues in a 3 M guanidine thiocyanate in 10 mM Tris-HCl solution for 10 min. […]

C[n+]1ccc(-c2cc[n+](C)cc2)cc1 [PQ, paraquat]
A11 immunoreactivity vs controls: high A11 immunoreactivity | PK-resistant α-synuclein immunoreactivity: higher PK-resistant α-synuclein immunoreactivity | increase in aggregated α-synuclein-positive cells vs control (800 μM): 62% | increase in aggregated α-synuclein-positive cells vs control (1000 μM): 64%
